What is called IC50 is the concentration needed to halve the response being measured. In general, Ki refers to a measure of affinity in units of concentration, obtained from inhibition or displacement.

Chain of Sodium-dependent dopamine transporter (Q01959 whole entry): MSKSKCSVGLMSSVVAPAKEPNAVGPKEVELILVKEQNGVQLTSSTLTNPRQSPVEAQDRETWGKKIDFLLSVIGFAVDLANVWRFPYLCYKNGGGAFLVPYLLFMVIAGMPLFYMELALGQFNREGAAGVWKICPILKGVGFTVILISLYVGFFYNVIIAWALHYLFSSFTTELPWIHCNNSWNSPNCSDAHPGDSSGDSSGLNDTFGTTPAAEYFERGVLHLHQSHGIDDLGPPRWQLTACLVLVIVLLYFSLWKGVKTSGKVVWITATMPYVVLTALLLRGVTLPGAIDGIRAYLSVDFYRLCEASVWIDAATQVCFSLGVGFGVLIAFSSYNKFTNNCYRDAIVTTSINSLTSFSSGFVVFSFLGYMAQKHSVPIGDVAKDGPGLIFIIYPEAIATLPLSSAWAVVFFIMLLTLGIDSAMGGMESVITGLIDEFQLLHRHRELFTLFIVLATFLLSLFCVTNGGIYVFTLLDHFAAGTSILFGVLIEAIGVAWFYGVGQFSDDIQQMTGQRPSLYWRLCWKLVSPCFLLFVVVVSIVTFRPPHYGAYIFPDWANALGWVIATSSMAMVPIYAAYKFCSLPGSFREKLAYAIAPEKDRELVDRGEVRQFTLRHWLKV

The first test concerns the target T1, Calcitonin receptor (Homo sapiens, UniProt P30988). Further: in other assays of this panel Not Active means under 50% inhibition at 10 µM.
T1 sequence (P30988 whole entry): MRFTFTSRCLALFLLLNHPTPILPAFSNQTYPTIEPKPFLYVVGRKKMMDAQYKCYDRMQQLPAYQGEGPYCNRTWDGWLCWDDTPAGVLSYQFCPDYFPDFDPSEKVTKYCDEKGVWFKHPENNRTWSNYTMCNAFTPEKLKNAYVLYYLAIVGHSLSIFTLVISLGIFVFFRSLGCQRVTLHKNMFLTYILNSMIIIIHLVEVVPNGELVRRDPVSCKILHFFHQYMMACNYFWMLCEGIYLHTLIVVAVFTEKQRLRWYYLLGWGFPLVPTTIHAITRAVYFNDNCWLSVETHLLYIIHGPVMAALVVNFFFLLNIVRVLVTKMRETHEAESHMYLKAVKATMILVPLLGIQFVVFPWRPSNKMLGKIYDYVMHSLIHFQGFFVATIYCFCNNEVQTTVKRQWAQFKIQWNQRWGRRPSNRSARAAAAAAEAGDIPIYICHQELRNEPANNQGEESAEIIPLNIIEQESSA
The test is classed as cell membranes, Membrane. The note with it: t47d.
As for `COc1c(C)c2c(c(O)c1C/C=C(\C)CCC(=O)O)C(=O)OC2` [MYCOPHENOLIC ACID], the IC50 result is “Not Active”.

For the molecule `CSc1ccc(/C=C2/C(C)=C(CC(=O)O)c3cc(F)ccc32)cc1` [SULINDAC SULFIDE], the concentration for half-maximal inhibition (IC50) entry is “Not Active”.

With `Nc1nc2ccc(OC(F)(F)F)cc2s1` [RILUZOLE], the IC50 result is reported as “Not Active”.

Take SODIUM NITROPRUSSIDE: the IC50 result is “Not Active” and the Ki entry is listed as “Not Active”.

As to `Cc1noc(NS(=O)(=O)c2ccc(N)cc2)c1C` [SULFISOXAZOLE], the IC50 entry is given as “Not Active”.

In the case of `Cc1cccc(N(C)C(=S)Oc2ccc3ccccc3c2)c1` [TOLNAFTATE], the IC50 entry is on record as “Not Active”.

Turning to `Cc1oncc1C(=O)Nc1ccc(C(F)(F)F)cc1` [LEFLUNOMIDE], the IC50 entry is “Not Active”.

Another test deals with Sigma non-opioid intracellular receptor 1 (Homo sapiens, UniProt Q99720). Kind of test: DRUGMATRIX: Sigma1 radioligand binding (ligand: [3H] Haloperidol). It is filed as cell membranes, Jurkat, Membrane. The note with it: jurkat; Not Active = under 50% inhibition at 10 µM.
Chain of Sigma non-opioid intracellular receptor 1 (Q99720 whole entry): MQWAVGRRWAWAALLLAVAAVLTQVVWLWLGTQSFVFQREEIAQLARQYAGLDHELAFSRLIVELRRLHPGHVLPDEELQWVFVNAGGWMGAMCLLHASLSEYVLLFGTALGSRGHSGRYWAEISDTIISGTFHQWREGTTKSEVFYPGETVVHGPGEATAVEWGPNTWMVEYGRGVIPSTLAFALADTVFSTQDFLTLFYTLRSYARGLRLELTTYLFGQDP
In the case of `COc1c(C)c2c(c(O)c1C/C=C(\C)CCC(=O)O)C(=O)OC2` [MYCOPHENOLIC ACID], the IC50 entry is given as “Not Active”.

On to `CSc1ccc(/C=C2/C(C)=C(CC(=O)O)c3cc(F)ccc32)cc1` [SULINDAC SULFIDE], for which the IC50 result was “Not Active”.

Regarding `Nc1nc2ccc(OC(F)(F)F)cc2s1` [RILUZOLE], the IC50 entry was “Not Active”.

With SODIUM NITROPRUSSIDE, the IC50 entry is recorded as “Not Active” and the Ki entry is “Not Active”.

`Cc1noc(NS(=O)(=O)c2ccc(N)cc2)c1C` [SULFISOXAZOLE]: the IC50 entry is recorded as “Not Active”.

With `Cc1cccc(N(C)C(=S)Oc2ccc3ccccc3c2)c1` [TOLNAFTATE], the IC50 entry is given as “Not Active”.

Regarding `Cc1oncc1C(=O)Nc1ccc(C(F)(F)F)cc1` [LEFLUNOMIDE], the IC50 result is reported as “Not Active”.

The next test concerns the target Sodium-dependent dopamine transporter (Homo sapiens, UniProt Q01959). Kind of test: DRUGMATRIX: Dopamine Transporter radioligand binding (ligand: [125I] RTI-55). It is filed as cell membranes, CHO-K1, Membrane. Particulars: Not Active = under 50% inhibition at 10 µM; read-out: IC50.
`Cc1oncc1C(=O)Nc1ccc(C(F)(F)F)cc1` [LEFLUNOMIDE]: the IC50 was determined as 2880 nM.

The same test, now with this note: Not Active = under 50% inhibition at 10 µM; read-out: Ki.
In the case of `Cc1oncc1C(=O)Nc1ccc(C(F)(F)F)cc1` [LEFLUNOMIDE], the Ki stood at 2290 nM.

Staying with this test, now noted: cho-k1; Not Active = under 50% inhibition at 10 µM.
For the molecule `COc1c(C)c2c(c(O)c1C/C=C(\C)CCC(=O)O)C(=O)OC2` [MYCOPHENOLIC ACID], the IC50 entry is listed as “Not Active”.

Take `CSc1ccc(/C=C2/C(C)=C(CC(=O)O)c3cc(F)ccc32)cc1` [SULINDAC SULFIDE]: the IC50 entry is given as “Not Active”.

For `Nc1nc2ccc(OC(F)(F)F)cc2s1` [RILUZOLE], the half-maximal inhibitory concentration (IC50) result is listed as “Not Active”.

Regarding SODIUM NITROPRUSSIDE, the IC50 result is given as “Not Active” and the Ki result was “Not Active”.

In the case of `Cc1noc(NS(=O)(=O)c2ccc(N)cc2)c1C` [SULFISOXAZOLE], the concentration for half-maximal inhibition (IC50) entry is “Not Active”.

Turning to `Cc1cccc(N(C)C(=S)Oc2ccc3ccccc3c2)c1` [TOLNAFTATE], the IC50 result is “Not Active”.

Another test deals with Melanocortin receptor 4 (Homo sapiens, UniProt P32245). It is filed as cell membranes, HEK293, Membrane. Particulars: hek293.
Chain of Melanocortin receptor 4 (P32245 whole entry): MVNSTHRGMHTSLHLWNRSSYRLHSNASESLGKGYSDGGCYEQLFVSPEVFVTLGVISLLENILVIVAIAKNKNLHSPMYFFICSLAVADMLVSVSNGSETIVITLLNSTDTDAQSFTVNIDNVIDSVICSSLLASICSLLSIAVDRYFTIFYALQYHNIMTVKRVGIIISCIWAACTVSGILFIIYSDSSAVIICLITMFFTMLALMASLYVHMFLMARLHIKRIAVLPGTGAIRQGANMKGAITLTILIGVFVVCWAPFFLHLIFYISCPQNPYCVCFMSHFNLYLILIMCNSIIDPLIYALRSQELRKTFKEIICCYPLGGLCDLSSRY
`COc1c(C)c2c(c(O)c1C/C=C(\C)CCC(=O)O)C(=O)OC2` [MYCOPHENOLIC ACID]: the IC50 result was “Not Active”.

For the molecule `CSc1ccc(/C=C2/C(C)=C(CC(=O)O)c3cc(F)ccc32)cc1` [SULINDAC SULFIDE], the half-inhibitory concentration (IC50) result was “Not Active”.

For `Nc1nc2ccc(OC(F)(F)F)cc2s1` [RILUZOLE], the 50% inhibitory concentration (IC50) result is “Not Active”.

Regarding SODIUM NITROPRUSSIDE, the IC50 result is “Not Active” and the Ki result is listed as “Not Active”.

For `Cc1noc(NS(=O)(=O)c2ccc(N)cc2)c1C` [SULFISOXAZOLE], the IC50 entry is “Not Active”.

In the case of `Cc1cccc(N(C)C(=S)Oc2ccc3ccccc3c2)c1` [TOLNAFTATE], the IC50 result is “Not Active”.

As to `Cc1oncc1C(=O)Nc1ccc(C(F)(F)F)cc1` [LEFLUNOMIDE], the IC50 result is recorded as “Not Active”.

For a further test, the target named is T2, Muscarinic acetylcholine receptor M5 (Homo sapiens, UniProt P08912). Further: in other assays of this panel Not Active means under 50% inhibition at 10 µM.
T2 sequence (P08912 whole entry): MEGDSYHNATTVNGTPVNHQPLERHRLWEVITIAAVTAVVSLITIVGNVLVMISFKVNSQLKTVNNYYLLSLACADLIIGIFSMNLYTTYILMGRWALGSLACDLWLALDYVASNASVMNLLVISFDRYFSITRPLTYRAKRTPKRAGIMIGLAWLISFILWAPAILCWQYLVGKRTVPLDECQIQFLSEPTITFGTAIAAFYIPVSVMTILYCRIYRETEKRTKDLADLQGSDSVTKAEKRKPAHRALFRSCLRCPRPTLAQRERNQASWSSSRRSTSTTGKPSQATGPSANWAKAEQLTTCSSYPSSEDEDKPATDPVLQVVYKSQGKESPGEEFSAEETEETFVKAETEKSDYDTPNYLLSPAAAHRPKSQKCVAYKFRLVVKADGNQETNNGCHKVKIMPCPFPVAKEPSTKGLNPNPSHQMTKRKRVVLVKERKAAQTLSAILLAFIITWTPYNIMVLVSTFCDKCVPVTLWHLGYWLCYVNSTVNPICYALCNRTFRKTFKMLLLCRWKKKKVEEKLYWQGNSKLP
It is filed as cell membranes, CHO-K1, Membrane. Particulars: cho-k1.
`COc1c(C)c2c(c(O)c1C/C=C(\C)CCC(=O)O)C(=O)OC2` [MYCOPHENOLIC ACID]: the 50% inhibitory concentration (IC50) result is on record as “Not Active”.

Turning to `CSc1ccc(/C=C2/C(C)=C(CC(=O)O)c3cc(F)ccc32)cc1` [SULINDAC SULFIDE], the half-maximal inhibitory concentration (IC50) result is given as “Not Active”.

Turning to `Nc1nc2ccc(OC(F)(F)F)cc2s1` [RILUZOLE], the IC50 entry was “Not Active”.

As for SODIUM NITROPRUSSIDE, the IC50 entry was “Not Active” and the Ki entry was “Not Active”.

As for `Cc1noc(NS(=O)(=O)c2ccc(N)cc2)c1C` [SULFISOXAZOLE], the IC50 entry is “Not Active”.

As to `Cc1cccc(N(C)C(=S)Oc2ccc3ccccc3c2)c1` [TOLNAFTATE], the IC50 result is listed as “Not Active”.

Regarding `Cc1oncc1C(=O)Nc1ccc(C(F)(F)F)cc1` [LEFLUNOMIDE], the IC50 result is on record as “Not Active”.

Another test addresses T3, Estrogen receptor (Homo sapiens, UniProt P03372).
T3 sequence (P03372 whole entry): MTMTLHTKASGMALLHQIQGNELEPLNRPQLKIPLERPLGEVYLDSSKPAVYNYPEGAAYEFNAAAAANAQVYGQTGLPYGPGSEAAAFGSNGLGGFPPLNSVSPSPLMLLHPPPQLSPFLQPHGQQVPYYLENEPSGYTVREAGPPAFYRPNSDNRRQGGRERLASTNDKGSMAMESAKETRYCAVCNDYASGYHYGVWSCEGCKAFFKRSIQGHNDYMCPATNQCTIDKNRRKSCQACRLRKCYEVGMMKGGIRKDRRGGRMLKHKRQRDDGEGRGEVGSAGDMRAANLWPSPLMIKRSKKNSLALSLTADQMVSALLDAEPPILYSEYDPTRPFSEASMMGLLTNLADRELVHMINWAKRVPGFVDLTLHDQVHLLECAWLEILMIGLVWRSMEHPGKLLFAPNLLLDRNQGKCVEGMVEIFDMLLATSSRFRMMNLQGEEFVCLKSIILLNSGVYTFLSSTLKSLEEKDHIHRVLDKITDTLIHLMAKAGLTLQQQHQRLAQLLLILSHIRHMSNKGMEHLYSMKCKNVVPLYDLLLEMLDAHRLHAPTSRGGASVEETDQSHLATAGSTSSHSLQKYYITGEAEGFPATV
Particulars: sf9.
On to `COc1c(C)c2c(c(O)c1C/C=C(\C)CCC(=O)O)C(=O)OC2` [MYCOPHENOLIC ACID], for which the IC50 result was “Not Active”.

As to `CSc1ccc(/C=C2/C(C)=C(CC(=O)O)c3cc(F)ccc32)cc1` [SULINDAC SULFIDE], the IC50 entry was “Not Active”.

As for `Nc1nc2ccc(OC(F)(F)F)cc2s1` [RILUZOLE], the IC50 entry is listed as “Not Active”.

SODIUM NITROPRUSSIDE: the IC50 entry is “Not Active” and the Ki result is “Not Active”.

`Cc1noc(NS(=O)(=O)c2ccc(N)cc2)c1C` [SULFISOXAZOLE]: the IC50 entry is on record as “Not Active”.

In the case of `Cc1cccc(N(C)C(=S)Oc2ccc3ccccc3c2)c1` [TOLNAFTATE], the IC50 entry is given as “Not Active”.

Consider `Cc1oncc1C(=O)Nc1ccc(C(F)(F)F)cc1` [LEFLUNOMIDE], for which the half-maximal inhibitory concentration (IC50) entry was “Not Active”.
